The text below walks through data of patent publication US20260317299A1, “PIKFYVE PROTEIN KINASE DEGRADATION AGENT AND USE THEREOF” (Shanghai Institute of Organic Chemistry, Chinese Academy of …, priority 2023, published 2026).

Each structure is given as a SMILES string.

The assay deals with T1, PIKfyve (Homo sapiens, UniProt Q9Y2I7).
T1 construct: endogenous in cells; host or cells: VCaP
T1 sequence (Q9Y2I7 whole entry): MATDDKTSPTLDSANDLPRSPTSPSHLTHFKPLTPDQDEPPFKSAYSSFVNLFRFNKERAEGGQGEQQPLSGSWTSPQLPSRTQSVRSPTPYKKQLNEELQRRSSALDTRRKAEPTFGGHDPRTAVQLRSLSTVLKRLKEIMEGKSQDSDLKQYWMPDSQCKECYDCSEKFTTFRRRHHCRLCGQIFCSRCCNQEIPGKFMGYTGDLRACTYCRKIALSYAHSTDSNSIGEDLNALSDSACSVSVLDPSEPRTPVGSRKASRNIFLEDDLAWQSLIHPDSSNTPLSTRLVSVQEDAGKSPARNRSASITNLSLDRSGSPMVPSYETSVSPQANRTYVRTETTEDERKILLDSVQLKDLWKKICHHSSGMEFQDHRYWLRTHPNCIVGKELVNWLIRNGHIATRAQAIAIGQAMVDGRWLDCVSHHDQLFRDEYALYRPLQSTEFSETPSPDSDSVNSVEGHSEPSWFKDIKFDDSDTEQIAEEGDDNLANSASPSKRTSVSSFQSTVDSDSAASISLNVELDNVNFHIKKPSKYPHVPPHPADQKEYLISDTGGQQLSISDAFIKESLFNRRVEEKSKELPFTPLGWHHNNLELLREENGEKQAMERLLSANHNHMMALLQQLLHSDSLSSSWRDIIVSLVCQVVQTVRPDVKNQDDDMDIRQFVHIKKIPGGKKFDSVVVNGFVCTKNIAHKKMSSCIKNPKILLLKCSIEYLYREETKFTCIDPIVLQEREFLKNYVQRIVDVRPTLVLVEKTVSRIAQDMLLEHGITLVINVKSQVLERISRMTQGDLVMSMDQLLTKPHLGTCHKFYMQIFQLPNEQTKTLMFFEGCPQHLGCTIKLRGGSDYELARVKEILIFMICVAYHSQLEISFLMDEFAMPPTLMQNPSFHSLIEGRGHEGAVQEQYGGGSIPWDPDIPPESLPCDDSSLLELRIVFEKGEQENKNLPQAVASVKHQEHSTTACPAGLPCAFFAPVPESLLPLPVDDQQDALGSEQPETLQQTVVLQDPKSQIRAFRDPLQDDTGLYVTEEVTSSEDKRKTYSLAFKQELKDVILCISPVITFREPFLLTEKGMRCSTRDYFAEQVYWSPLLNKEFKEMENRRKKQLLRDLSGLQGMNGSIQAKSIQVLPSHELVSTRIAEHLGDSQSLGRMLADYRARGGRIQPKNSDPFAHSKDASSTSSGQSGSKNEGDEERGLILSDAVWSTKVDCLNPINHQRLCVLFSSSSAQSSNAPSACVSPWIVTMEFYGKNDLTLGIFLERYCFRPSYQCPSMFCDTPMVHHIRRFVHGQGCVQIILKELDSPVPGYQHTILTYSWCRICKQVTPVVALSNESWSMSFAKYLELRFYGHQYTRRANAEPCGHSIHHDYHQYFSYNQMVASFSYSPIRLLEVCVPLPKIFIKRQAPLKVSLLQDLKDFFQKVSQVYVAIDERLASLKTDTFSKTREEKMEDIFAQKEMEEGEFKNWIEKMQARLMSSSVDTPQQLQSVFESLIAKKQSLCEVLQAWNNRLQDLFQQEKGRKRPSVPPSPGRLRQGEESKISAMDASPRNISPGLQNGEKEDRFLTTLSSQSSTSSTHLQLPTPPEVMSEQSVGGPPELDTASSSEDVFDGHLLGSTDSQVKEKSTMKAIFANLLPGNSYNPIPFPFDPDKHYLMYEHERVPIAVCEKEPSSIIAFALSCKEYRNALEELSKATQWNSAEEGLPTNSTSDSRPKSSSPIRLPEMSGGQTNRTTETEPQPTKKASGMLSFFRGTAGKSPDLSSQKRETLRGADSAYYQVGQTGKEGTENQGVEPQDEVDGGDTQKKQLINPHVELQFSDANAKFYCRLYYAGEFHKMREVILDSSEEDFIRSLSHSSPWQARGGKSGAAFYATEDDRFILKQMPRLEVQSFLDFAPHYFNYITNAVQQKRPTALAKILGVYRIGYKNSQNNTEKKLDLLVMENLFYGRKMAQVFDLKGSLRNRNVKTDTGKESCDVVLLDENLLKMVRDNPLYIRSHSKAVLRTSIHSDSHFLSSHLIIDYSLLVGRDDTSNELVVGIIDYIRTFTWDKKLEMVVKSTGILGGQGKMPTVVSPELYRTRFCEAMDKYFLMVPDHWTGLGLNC
Description: Degradation of PIKfyve proteins in VCaP tumor cells (24 h, Western blot). It counts as cell-based. Conditions: 37° C., compared with DMSO control, WB, read-out: DC50 (concentration that achieves 50% degradation activity). The protocol:
Method: 200 μL of cells at a density of 5×10^6 cells/ml were inoculated into a 6-well plate, and then different concentrations of drugs were added. The cells were treated at 37° C. for 24 h. The […] was collected and washed with PBS twice. Then, 100-200 μL of 1×SDS lysate was added, and the cell lysate was collected into a centrifuge tube. The cells were disrupted ultrasonically for 10-20 sec, and boiled for 10 min. Protein samples were subjected to SDS-PAGE electrophoresis at a voltage of 90 V, transferred to PVDF membranes at 110 V, blocked with 5% BSA for 4 h, incubated with primary antibodies (PIKfyve, GAPDH) at 4° C. overnight, and incubated with secondary antibodies (anti-Rabbit IgG or anti-Mouse IgG) at room temperature. The membranes were washed with TBST buffer, developed with an ECL developing solution, and then imaged to obtain protein band signals, with single-concentration WB results as shown in FIG. 1. Compared with the DMSO control group, the concentration that achieves 50% degradation activity is defined as DC50.
For the compound `Cc1cccc(/C=N/Nc2cc(N3CCOCC3)nc(OCCc3ccc(NC(=O)CCCCCCCCC(=O)N[C@H](C(=O)N4C[C@H](O)C[C@H]4C(=O)N[C@@H](C)c4ccc(-c5scnc5C)cc4)C(C)(C)C)cc3)n2)c1` [Example 48], the DC50 was 1 to 100 nM.

For `Cc1cccc(/C=N/Nc2cc(N3CCOCC3)nc(OCCc3ccc(NC(=O)CCCCCCC(=O)Nc4ccc5c(c4)CN(C4CCC(=O)NC4=O)C5=O)cc3)n2)c1` (stereo not drawn) [Example 26, (E)-N^1-(2-(2,6-dioxopiperidin-3-yl)-1-oxoisoindolin-5-yl)-N^8-(4-(2-((4-(2-(3-methylbenzylidene)hydrazino)-6-morpholinopyrimidin-2-yl)oxy)ethyl)phenyl)octanediamide], the DC50 fell in the range of 100 to 10000 nM.

In the case of `Cc1cccc(/C=N/Nc2cc(N3CCOCC3)nc(OCCc3ccc(NC(=O)CCCCCCCCC(=O)Nc4ccc5c(c4)C(=O)N(C4CCC(=O)NC4=O)C5)cc3)n2)c1` (stereo not drawn) [Example 31, (E)-N^1-(2-(2,6-dioxopiperidin-3-yl)-3-oxoisoindol-5-yl)-N^10-(4-(2-((4-(2-(3-methylbenzylidene)hydrazino)-6-morpholinopyrimidin-2-yl)oxy)ethyl)phenyl)decanediamide], the DC50 was 100 to 10000 nM.

For `Cc1cccc(/C=N/Nc2cc(N3CCOCC3)nc(OCCc3ccc(NC(=O)CCCCCNC(=O)CSC(C)(C)[C@H](NC(=O)C4(F)CC4)C(=O)N4C[C@H](O)C[C@H]4C(=O)NCc4ccc(-c5scnc5C)cc4)cc3)n2)c1` [Example 60, (2S,4R)-1-((R)-2-(1-fluorocyclopropane-1-carboxamido)-3-methyl-3-((2-((6-((4-(2-((4-(2-((E)-3-methylbenzylidene)hydrazino)-6-morpholinopyrimidin-2-yl)oxy)ethyl)phenyl)amino)-6-oxohexyl)amino)-2-oxoethyl)thio)butanoyl)-4-hydroxy-N-(4-(4-methylthiazol-5-yl)benzyl)pyrrolidine-2-carboxamide], the DC50 was in the range of 100 to 10000 nM.

On to `Cc1cccc(-c2ccn(-c3cc(N4CCOCC4)nc(OCCc4ccc(C#CC5CCN(C(=O)CC[C@H](NC(=O)[C@@H]6C[C@@H](O)CN6C(=O)[C@@H](NC(=O)C6(F)CC6)C(C)(C)C)c6ccc(-c7scnc7C)cc6)CC5)cc4)n3)n2)c1` [Example 71, (2S,4R)-1-((S)-2-(1-fluorocyclopropane-1-carboxamido)-3,3-dimethylbutanoyl)-4-hydroxy-N—((S)-1-(4-(4-methylthiazol-5-yl)phenyl)-4-(4-((4-(2-((4-morpholino-6-(3-(m-tolyl)-1H-pyrazol-1-yl)pyrimidin-2-yl)oxy)ethyl)phenyl)ethynyl)piperidin-1-yl)-4-oxobutyl) pyrrolidine-2-carboxamide], for which the DC50 lay within 1 to 100 nM.

In the case of `Cc1cccc(/C=N/Nc2cc(N3CCOCC3)nc(OCCNC(=O)CCC(=O)N[C@H](C(=O)N3C[C@H](O)C[C@H]3C(=O)NCc3ccc(-c4scnc4C)cc3)C(C)(C)C)n2)c1` [Example 61, N^1—((S)-1-((2S,4R)-4-hydroxy-2-((4-(4-methylthiazol-5-yl)benzyl)carbamoyl)pyrrolidine-1-yl)-3,3-dimethyl-1-oxobutan-2-yl)-N^4-(2-((4-(2-((E)-3-methylbenzylidene) hydrazino)-6-morpholinopyrimidin-2-yl)oxy)ethyl)succinimide], the DC50 fell in the range of 100 to 10000 nM.

For the compound `Cc1cccc(/C=N/Nc2cc(N3CCOCC3)nc(OCCc3ccc(NC(=O)CCCCCCCCC(=O)Nc4cccc5c4CN(C4CCC(=O)NC4=O)C5=O)cc3)n2)c1` (stereo not drawn) [Example 22, (E)-N^1-(2-(2,6-dioxopiperidin-3-yl)-1-oxoisoindolin-4-yl)-N^10-(4-(2-((4-(2-(3-methylbenzylidene)hydrazino)-6-morpholinopyrimidin-2-yl)oxy)ethyl)phenyl)decanediamide], the DC50 was 100 to 10000 nM.

With `Cc1cccc(-c2ccn(-c3cc(N4CCOCC4)nc(OC4CCN(c5ccc(N6CCN(c7cc8c(cc7F)C(=O)N(C7CCC(=O)NC7=O)C8=O)CC6)cc5)CC4)n3)n2)c1` (stereo not drawn) [Example 89, 2-(2,6-Dioxopiperidin-3-yl)-5-fluoro-6-(4-(4-(4-((4-morpholino-6-(3-(m-tolyl)-1H-pyrazol-1-yl)pyrimidin-2-yl)oxy)piperidin-1-yl)phenyl)piperazin-1-yl)isoindoline-1,3-dione], the DC50 is 100 to 10000 nM.

With `Cc1cccc(-c2ccn(-c3cc(N4CCOCC4)nc(OCCc4ccc(NC(=O)CCCCCNC(=O)COc5cc(-c6scnc6C)ccc5CNC(=O)[C@@H]5C[C@@H](O)CN5C(=O)[C@@H](NC(=O)C5(F)CC5)C(C)(C)C)cc4)n3)n2)c1` [Example 66, (2S,4R)-1-((S)-2-(1-fluorocyclopropane-1-carboxamido)-3,3-dimethylbutanoyl)-4-hydroxy-N-(4-(4-methylthiazol-5-yl)-2-(2-((6-((4-(2-((4-morpholino-6-(3-(m-tolyl)-1H-pyrazol-1-yl)pyrimidin-2-yl)oxy)ethyl)phenyl)amino)-6-oxohexyl)amino)-2-oxoethoxy)benzyl) pyrrolidine-2-carboxamide], the DC50 was in the range of 1 to 100 nM.

In the case of `Cc1cccc(/C=N/Nc2cc(N3CCOCC3)nc(OCCc3ccc(NC(=O)CCC(=O)Nc4ccc5c(c4)C(=O)N(C4CCC(=O)NC4=O)C5)cc3)n2)c1` (stereo not drawn) [Example 28, (E)-N^1-(2-(2,6-dioxopiperidin-3-yl)-3-oxoisoindolin-5-yl)-N^4-(4-(2-((4-(2-(3-methylbenzylidene)hydrazino)-6-morpholinopyrimidin-2-yl)oxy)ethyl)phenyl)succinimide], the DC50 was 1 to 100 nM.

For `Cc1cccc(/C=N/Nc2cc(N3CCOCC3)nc(OCCc3ccc(NC(=O)CCCCC(=O)N[C@H](C(=O)N4C[C@H](O)C[C@H]4C(=O)N[C@@H](C)c4ccc(-c5scnc5C)cc4)C(C)(C)C)cc3)n2)c1` [Example 46], the DC50 lay in the range of 1 to 100 nM.

For the compound `Cc1cccc(/C=N/Nc2cc(N3CCOCC3)nc(OCCc3ccc(NC(=O)CCCCCC(=O)N[C@H](C(=O)N4C[C@H](O)C[C@H]4C(=O)NCc4ccc(-c5scnc5C)cc4)C(C)(C)C)cc3)n2)c1` [Example 42, N^1—((S)-1-((2S,4R)-4-hydroxy-2-((4-(4-methylthiazol-5-yl)benzyl)carbamoyl)pyrrolidine-1-yl)-3,3-dimethyl-1-oxobutan-2-yl)-N^7-(4-(2-((4-(2-((E)-3-methylbenzylidene) hydrazino)-6-morpholinopyrimidin-2-yl)oxy)ethyl)phenyl)heptanediamide], the DC50 fell in the range of 1 to 100 nM.

In the case of `Cc1cccc(/C=N/Nc2cc(N3CCOCC3)nc(OCCc3ccc(NC(=O)CCCCCCCCC(=O)N[C@H](C(=O)N4C[C@H](O)C[C@H]4C(=O)NCc4ccc(-c5scnc5C)cc4)C(C)(C)C)cc3)n2)c1` [Example 40, N^1—((S)-1-((2S,4R)-4-hydroxy-2-((4-(4-methylthiazol-5-yl)benzyl)carbamoyl)pyrrolidine-1-yl)-3,3-dimethyl-1-oxobutan-2-yl)-N^10-(4-(2-((4-(2-((E)-3-methylbenzylidene) hydrazino)-6-morpholinopyrimidin-2-yl)oxy)ethyl)phenyl)decanediamide], the DC50 was 1 to 100 nM.

For the compound `Cc1cccc(/C=N/Nc2cc(N3CCOCC3)nc(OCCc3ccc(NC(=O)CCCCCCCCC(=O)Nc4ccc5c(c4)CN(C4CCC(=O)NC4=O)C5=O)cc3)n2)c1` (stereo not drawn) [Example 27, (E)-N^1-(2-(2,6-dioxopiperidin-3-yl)-1-oxoisoindolin-5-yl)-N^10-(4-(2-((4-(2-(3-methylbenzylidene)hydrazino)-6-morpholinopyrimidin-2-yl)oxy)ethyl)phenyl)decanediamide], the DC50 was in the range of 1 to 100 nM.

Take `Cc1cccc(/C=N/Nc2cc(N3CCOCC3)nc(OCCc3ccc(NC(=O)CCCNC(=O)CC[C@H](NC(=O)[C@@H]4C[C@@H](O)CN4C(=O)[C@@H](NC(=O)C4(F)CC4)C(C)(C)C)c4ccc(-c5scnc5C)cc4)cc3)n2)c1` [Example 51, (2S,4R)-1-((S)-2-(1-fluorocyclopropane-1-carboxamido)-3,3-dimethylbutanoyl)-4-hydroxy-N—((S)-4-((4-((4-(2-((4-(2-((E)-3-methylbenzylidene)hydrazino)-6-morpholinopyrimidin-2-yl)oxy)ethyl)phenyl)amino)-4-oxobutyl)amino)-1-(4-(4-methylthiazol-5-yl)phenyl)4-oxobutyl)pyrrolidine-2-carboxamide]: the DC50 lay within 1 to 100 nM.

Regarding `Cc1cccc(/C=N/Nc2cc(N3CCOCC3)nc(OCCc3ccc(NC(=O)CCCCCNc4ccc5c(c4)C(=O)N(C4CCC(=O)NC4=O)C5=O)cc3)n2)c1` (stereo not drawn) [Example 17, (E)-6-((2-(2,6-dioxopiperidin-3-yl)-1,3-dioxoisoindolin-5-yl)amino)-N-(4-(2-((4-(2-(3-methylbenzylidene)hydrazino)-6-morpholinopyrimidin-2-yl)oxy)ethyl)phenyl) hexanamide], the DC50 fell in the range of 100 to 10000 nM.

For the compound `Cc1cccc(-c2ccn(-c3cc(N4CCOCC4)nc(OCCc4ccc(C#CC5CCN(c6cc7c(cc6F)C(=O)N(C6CCC(=O)NC6=O)C7=O)CC5)cc4)n3)n2)c1` (stereo not drawn) [Example 90, 2-(2,6-Dioxopiperidin-3-yl)-5-fluoro-6-(4-((4-(2-((4-morpholino-6-(3-(m-tolyl)-1H-pyrazol-1-yl)pyrimidin-2-yl)oxy)ethyl)phenyl)ethynyl)piperidin-1-yl)isoindoline-1,3-dione], the DC50 was 100 to 10000 nM.

Turning to `Cc1cccc(/C=N/Nc2cc(N3CCOCC3)nc(OCCc3ccc(NC(=O)CCCCCCCCCCC(=O)Nc4cccc5c4CN(C4CCC(=O)NC4=O)C5=O)cc3)n2)c1` (stereo not drawn) [Example 23, (E)-N^1-(2-(2,6-dioxopiperidin-3-yl)-1-oxoisoindolin-4-yl)-N^12-(4-(2-((4-(2-(3-methylbenzylidene)hydrazino)-6-morpholinopyrimidin-2-yl)oxy)ethyl)phenyl)dodecanediamide], the DC50 lay in the range of 100 to 10000 nM.
